“Also recorded” adds a separate entry of the source.

Experiment [1] has as its system A549 cells. Kind of experiment: Reactive oxygen species assay (DCFH-DA), A549. The following applies: compound at IC50 24 h plus H2O2, H2O2 only 1.86-fold. The class given is cell-based, human. How it is done:
After incubation, compounds were added into the wells and further incubated for next 24 h. H2O2 (1 mM) was added at 22nd h of incubation with compounds. H2O2 was used as a positive control. 30 min before the analysis, DCFH-DA (20 µM) was added to the wells. After incubation, cells were harvested and washed in PBS. Then, cells were centrifuged at 1500 rpm for 10 min. Medium was removed and cells were suspended in PBS. Analysis was performed on BD Accuri C6 Flow Cytometry (Becton–Dickinson).

Experiment [2] concerns the target T1, hyaluronidase from bovine testes Type I-S (Bos taurus, UniProt Q2YDK3).
T1 construct: purchased Sigma Aldrich; host or cells: bovine testes (tissue-derived preparation)
T1 sequence (Q2YDK3 36-553): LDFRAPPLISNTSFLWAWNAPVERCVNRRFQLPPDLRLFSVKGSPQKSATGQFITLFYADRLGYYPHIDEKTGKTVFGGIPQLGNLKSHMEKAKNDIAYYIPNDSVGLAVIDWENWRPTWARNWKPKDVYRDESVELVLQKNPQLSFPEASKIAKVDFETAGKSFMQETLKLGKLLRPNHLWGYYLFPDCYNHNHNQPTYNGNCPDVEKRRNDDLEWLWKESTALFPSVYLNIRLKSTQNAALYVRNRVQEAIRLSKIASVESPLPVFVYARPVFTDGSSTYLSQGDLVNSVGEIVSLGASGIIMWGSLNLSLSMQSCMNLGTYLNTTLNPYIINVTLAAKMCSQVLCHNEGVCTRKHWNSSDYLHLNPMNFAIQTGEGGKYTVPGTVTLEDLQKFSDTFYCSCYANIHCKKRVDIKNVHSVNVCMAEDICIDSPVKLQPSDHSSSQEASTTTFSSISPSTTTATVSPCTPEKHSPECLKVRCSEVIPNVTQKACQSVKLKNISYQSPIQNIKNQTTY
The experiment in a line: Hyaluronidase inhibition assay (turbidimetric). The class given is biochemical. The following applies: read-out: HYAL IC50 ± SD.

In the next experiment the test system is EA.hy926 cells. The experiment in a line: MTT cytotoxicity assay, EA.hy926. The experiment is classed as cell-based, human. The settings on record: Homo sapiens, EA.hy 926; MTT, 24 h incubation; read-out: IC50 µM ± SD against EA.hy926. From the text:
The EA.hy926 cells (the human umbilical vein, somatic cell hybrid) (American Type Culture Collection) are immortalized human umbilical vein endothelial cells. They have morphological, phenotypic and functional characteristics of human endothelial cells, without the limited lifespan. This cell line has been considered as a good model for anticancer drug screening and was chosen to evaluate the endothelial cytotoxicity of novel compounds.
(§1) The MTT assay was used to evaluate cell metabolic activity. The test principle is based on the determination of cell viability by measuring the metabolic activity in mitochondria. Enzymatically active mitochondria reduce the water-soluble MTT (3-(4,5-dimethylthiazol-2-yl)-2,5 diphenyltetrazoliumbromide) to blue–violet insoluble formazan. The number of viability cells is proportional to the colour intensity determined by photometric measurements (an analytical wavelength 570 nm) after dissolving the formazan in Dimethylsulfoxide (DMSO) (Serva) and Sorensen’s glycine buffer. MTT (Sigma Aldrich) was dissolved in Phosphate Buffered Saline (PBS) (PAN-Biotech) at a concentration of 0.5 mg/mL. Sorensen’s glycine buffer is made of 0.1 M glycine and 0.1 M NaCl, at pH 10.5. Studied compounds were dissolved in DMSO in order to receive stock solutions.
(§2) For the assay, cells were seeded into 96-well plates at density 10^4 cells per well and cultured for 24 h at 37 °C and 5% CO2. Then medium was removed, and cells were exposed to the 100 µL of the compound solutions over a range of concentrations (final DMSO concentration was below 0.2%) or nothing but culture medium (blank control). Pure DMSO was used as a positive control. After 24 h of incubation with the compound solutions, medium was removed and 50 µL of the MTT solution was added to each well and incubated in the dark for additional 2 h at 37 °C. Then the MTT solution was carefully removed and 100 µL of DMSO was added. Plates were incubated for 10 min at room temperature. Finally, 5 µL of Sorensen Buffer was added to each well. Plate was swayed, and the absorbance was measured by using microplate reader (Synergy H1, BioTek, Winooski, VT, USA) at a wavelength of 570 nm. The cell viability was expressed as a percentage of the control values (blank). The experiments were done in triplicate.

In a further experiment the test system is PARP-1. Kind of experiment: Western blot of PARP-1 cleavage, A549. The experiment is classed as cell-based, human. The settings on record: A549, 24 h, IC50 and 1/2IC50. How it is done: Then, cells were treated with chosen compounds. After 24 h of incubation, monolayer and supernatant were harvested and washed in cold PBS. Cells were centrifuged—monolayer at 1200 rpm for 10 min, supernatant 3500 rpm for 10 min. Pellets were dissolved in RIPA Lysis and Extraction buffer (Bio-Rad) containing Phosphatase Inhibitor Cocktail 3 (Sigma Aldrich) and Protease Inhibitor Cocktail (Sigma Aldrich). Samples were incubated in ice for 30 min and mixed every 10 min. Then, samples were centrifuged at 12,000 rpm for 25 min. Protein concentration in supernatants was measured in triplicate using a Protein Assay (Bio-Rad). Proteins were separated by SDS–polyacrylamide gel electrophoresis. Separating and stacking gels were made of different ratios of water, Tris–HCl pH 6.8 and pH 8.8, 10% SDS (Sigma Aldrich), Acrylamide/bis-acrylamide (Sigma Aldrich), 10% APS (Sigma Aldrich), TEMED (Sigma Aldrich). 7.5% gels were prepared for analysis PARP-1, whereas 12% gels prepared for γ-H2AX. After separation on SDS–polyacrylamide gels, proteins were electroblotted on nitrocellulose membrane in Transfer Buffer (Glycine, Tris, Methanol). Membranes were washed in TBS/0.1% or 0.05% Tween20 solution and blocked in Tris-buffered saline with 5% of non-fated dried milk for 1 h. Membranes were then incubated overnight with primary antibodies—anti-PARP-1 (Cell Signaling Technology), anti-γ-H2A.X (Cell Signaling Technology), anti-β-actin (Cell Signaling Technology) in cold room (6 °C). After incubation, membranes well washed with TBS/Tween solution and blocked with and horseradish peroxidase-conjugated secondary antibodies (Bio-Rad) for 1 h in cold room. Protein bands were visualized using ECL™ Prime Western Blotting Detection Reagents (Sigma Aldrich) Healthcare and Carestream Kodak autoradiography GBX fixer/replenisher (Sigma Aldrich) with Developer and Replenisher (Carestream) in the dark room. Results were obtained on Autoradiography Film (Santa Cruz Biotechnology). Densitometric analysis was performed by using a software program (ImageJ). […]

Experiment [3] has as its system A549 cells. The experiment in a line: MTT cytotoxicity assay, A549. The experiment is classed as cell-based, human. The settings on record: Homo sapiens, A549; MTT, 24 h incubation; read-out: IC50 µM ± SD against A549.
Source text: A549 cell line (lung carcinoma from human) (European Collection of Cell Culture) and HT-29 cell line (colorectal adenocarcinoma from human) (American Type Culture Collection) were chosen to evaluate the cytotoxicity of novel compounds.
as §1, §2

In the case of `O=C(NCCCNc1c2c(nc3ccccc13)CCCC2)c1cccc(I)c1` [Compound 1e], the “Increase in ROS level (DCF fluorescence) in comparison with non-treated control” value (from here on “Increase in ROS level … with non-treated control”) with A549 cells [1] is 1.98 fold. For the same compound, the IC50 in experiment [2] came to 231 ± 5.64 µM; with EA.hy926 cells, 11.7 ± 0.62 µM; with A549 cells [3], 23.5 ± 2.6 µM. Besides, the “Cleaved PARP-1 (89 kDa) level (in words)” value in the experiment with PARP-1 is reported as “comparable apoptotic effect at their IC50 concentrations; also recorded: highest PARP-1 cleavage was observed for 1/2IC50 (11.75 µM)”.
As for `O=C(NCCCNc1c2c(nc3ccccc13)CCCC2)c1ccccc1I` [Compound 1b], the “Increase in ROS level … with non-treated control” value with A549 cells [1] turned out to be 1.98 fold. The IC50 in experiment [2] worked out at 233 ± 4.87 µM; in the experiment with EA.hy926 cells, 22.4 ± 2.3 µM; with A549 cells [3], 32.5 ± 2.25 µM. Moreover, in the experiment with PARP-1, the “Cleaved PARP-1 (89 kDa) level (in words)” value is reported as “comparable apoptotic effect at their IC50 concentrations”.
Regarding `O=C(NCCCCNc1c2c(nc3ccccc13)CCCC2)c1ccccc1I` [Compound 1c], the figures for the IC50 (in experiment [2]; in the experiment with EA.hy926 cells; in the experiment on A549 cells [3]) were 244 ± 7.95 µM, 14.3 ± 1.65 µM and 59.1 ± 5.86 µM, respectively.
On to `O=C(NCCCCNc1c2c(nc3ccccc13)CCCC2)c1ccc(I)cc1` [Compound 1i], for which, in the experiment on A549 cells [1], the “Increase in ROS level … with non-treated control” value was found to be 1.98 fold. Also, the IC50 in experiment [2] amounted to 234 ± 8.98 µM; in the experiment on EA.hy926 cells it was 11.3 ± 0.89 µM; in the experiment on A549 cells [3] it was 14.9 ± 1.06 µM. Moreover, in the experiment with PARP-1, the “Cleaved PARP-1 (89 kDa) level (in words)” value is given as “highest effect”.

The record behind these values is article PMC6745035, “Novel tetrahydroacridine derivatives with iodobenzoic moieties induce G0/G1 cell cycle arrest and apoptosis in A549 non-small lung cancer and HT-29 colorectal cancer cells” (Molecular and Cellular Biochemistry, 2019).
